Laboratory results reported in patent publication US20250388605A1, “HETEROBIFUNCTIONAL COMPOUNDS AND METHODS OF TREATING DISEASE” (Halda Therapeutics OpCo, Inc., priority 2022, published 2025).

Assays:
BRD4-BD1 = target: T1, BRD4-BD1 (Homo sapiens, UniProt O60885); assay: Binding affinity to BRD4-BD1 (bromoKdELECT assay); settings: 11-point 3-fold dilution series
T1 construct: made in house; host or cells: T7 phage grown in an E. coli host derived from the BL21 strain

T47D cells = assay: Cellular Growth Inhibition Assay for T47D Cells (CellTiter-Glo); format: cell-based, human; settings: 72 hours
Outline: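 GI50 values derive from four-parameter regression of CellTiter-Glo 2.0 luminescence, using zero luminescence as baseline. Human breast cancer T47D cells (3000/well; DMEM, 10% FBS, 0.2 units/mL insulin) were exposed for 72 h to compound dilutions at 0.5% DMSO, with dosing starting 24 h after seeding.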

SMILES: Cn1cc(-c2cc(C(C)(C)O)ccc2Oc2cccc(CCOC3CCN(c4ncc(C(=O)N[C@H]5C(C)(C)[C@H](Oc6ccc(C#N)c(Cl)c6)C5(C)C)cn4)CC3)c2F)c2cc[nH]c2c1=O [Compound I-147]
- Kd (BRD4-BD1): > 2500 nM
- GI50 (T47D cells): < 500 nM

SMILES: Cn1cc(-c2cc(C(C)(C)O)ccc2Oc2cccc(OCCC3CCN(c4ncc(C(=O)N[C@H]5C(C)(C)[C@H](Oc6ccc(C#N)c(Cl)c6)C5(C)C)cn4)CC3)c2)c2cc[nH]c2c1=O [Compound I-156]
- Kd (BRD4-BD1): 500 to 2500 nM
- GI50 (T47D cells): 500 to 1500 nM

SMILES: Cn1cc(-c2cc(C(C)(C)O)ccc2Oc2cccc(N3CC(OC4CCN(c5ncc(C(=O)N[C@H]6C(C)(C)[C@H](Oc7ccc(C#N)c(Cl)c7)C6(C)C)cn5)CC4)C3)c2F)c2cc[nH]c2c1=O [Compound I-190]
- Kd (BRD4-BD1): 500 to 2500 nM
- GI50 (T47D cells): 500 to 1500 nM

SMILES: Cc1ccc(CCCOC2CCN(c3ncc(C(=O)N[C@H]4C(C)(C)[C@H](Oc5ccc(C#N)c(Cl)c5)C4(C)C)cn3)CC2)cc1Oc1ccc(C(C)(C)O)cc1-c1cn(C)c(=O)c2[nH]ccc12 [Compound I-192]
- Kd (BRD4-BD1): > 2500 nM
- GI50 (T47D cells; Homo sapiens): 500 to 1500 nM

SMILES: Cn1cc(-c2cc(C(C)(C)O)ccc2Oc2cccc(CCOC3CCN(c4ncc(C(=O)N[C@H]5C(C)(C)[C@H](Oc6ccc(C#N)c(Cl)c6)C5(C)C)cn4)CC3)c2)c2cc[nH]c2c1=O [Compound I-193]
- Kd (BRD4-BD1): > 2500 nM
- GI50 (T47D cells): < 500 nM

SMILES: Cn1cc(-c2cc(C(C)(C)O)ccc2Oc2ccc(CCOC3CCN(c4ncc(C(=O)N[C@H]5C(C)(C)[C@H](Oc6ccc(C#N)c(Cl)c6)C5(C)C)cn4)CC3)cc2)c2cc[nH]c2c1=O [Compound I-194]
- Kd (BRD4-BD1): > 2500 nM
- GI50 (T47D cells; Homo sapiens): 500 to 1500 nM

SMILES: Cc1ccc(CCCOC2CCN(c3ncc(C(=O)N[C@H]4C(C)(C)[C@H](Oc5ccc(C#N)c(Cl)c5)C4(C)C)cn3)CC2)c(C)c1Oc1ccc(C(C)(C)O)cc1-c1cn(C)c(=O)c2[nH]ccc12 [Compound I-195]
- Kd (BRD4-BD1): > 2500 nM
- GI50 (T47D cells; Homo sapiens): 500 to 1500 nM

SMILES: Cn1cc(-c2cc(C(C)(C)O)ccc2Oc2cccc(N3CC(CC4CCN(c5ncc(C(=O)N[C@H]6C(C)(C)[C@H](Oc7ccc(C#N)c(Cl)c7)C6(C)C)cn5)CC4)C3)c2F)c2cc[nH]c2c1=O [Compound I-196]
- Kd (BRD4-BD1): 50 to 500 nM
- GI50 (T47D cells): 500 to 1500 nM

SMILES: CN(c1ccc(Oc2ccc(C(C)(C)O)cc2-c2cn(C)c(=O)c3[nH]ccc23)cc1)C1CCN(c2ncc(C(=O)N[C@H]3C(C)(C)[C@H](Oc4ccc(C#N)c(Cl)c4)C3(C)C)cn2)CC1 [Compound I-197]
- Kd (BRD4-BD1): 50 to 500 nM
- GI50 (T47D cells; Homo sapiens): < 500 nM

SMILES: Cn1cc(-c2cc(C(C)(C)O)ccc2Oc2ccc(CCC3CCN(c4ncc(C(=O)N[C@H]5C(C)(C)[C@H](Oc6ccc(C#N)c(Cl)c6)C5(C)C)cn4)CC3)cc2)c2cc[nH]c2c1=O [Compound I-203]
- Kd (BRD4-BD1): > 2500 nM
- GI50 (T47D cells; Homo sapiens): 500 to 1500 nM

SMILES: CN(CCCc1ccc(Oc2ccc(C(C)(C)O)cc2-c2cn(C)c(=O)c3[nH]ccc23)cc1)c1ncc(C(=O)N[C@H]2C(C)(C)[C@H](Oc3ccc(C#N)c(Cl)c3)C2(C)C)cn1 [Compound I-211]
- Kd (BRD4-BD1): > 2500 nM
- GI50 (T47D cells; Homo sapiens): < 500 nM

SMILES: CC(C)N(CC1CCN(c2ncc(C(=O)N[C@H]3C(C)(C)[C@H](Oc4ccc(C#N)c(Cl)c4)C3(C)C)cn2)CC1)[C@H]1C[C@H](Oc2cccc(Oc3ccc(C(C)(C)O)cc3-c3cn(C)c(=O)c4[nH]ccc34)c2F)C1 [Compound I-214]
- Kd (BRD4-BD1): < 50 nM
- GI50 (T47D cells; Homo sapiens): < 500 nM

SMILES: CCS(=O)(=O)c1ccc(OC(CCCCN2CCN(c3ncc(C(=O)NC4C(C)(C)C(Oc5ccc(C#N)c(Cl)c5)C4(C)C)cn3)CC2)C2CC2)c(-c2cn(C)c(=O)c3[nH]ccc23)c1 (stereo not drawn) [Compound I-223, N-[3-(3-chloro-4-cyano-phenoxy)-2,2,4,4-tetramethyl-cyclobutyl]-2-[4-[5-cyclopropyl-5-[4-ethylsulfonyl-2-(6-methyl-7-oxo-1H-pyrrolo[2,3-c]pyridin-4-yl)phenoxy]pentyl]piperazin-1-yl]pyrimidine-5-carboxamide]
- Kd (BRD4-BD1): < 50 nM
- GI50 (T47D cells; Homo sapiens): < 500 nM

SMILES: Cn1cc(-c2cc(C(C)(C)O)ccc2Oc2ccc(N3CC(CN4CC5CC4CN5c4ncc(C(=O)N[C@H]5C(C)(C)[C@H](Oc6ccc(C#N)c(Cl)c6)C5(C)C)cn4)C3)cc2)c2cc[nH]c2c1=O (stereo partly drawn) [Compound I-228]
- Kd (BRD4-BD1): < 50 nM
- GI50 (T47D cells; Homo sapiens): < 500 nM

SMILES: CCS(=O)(=O)c1ccc(OCC(CCCN2CCN(c3ncc(C(=O)NC4C(C)(C)C(Oc5ccc(C#N)c(Cl)c5)C4(C)C)cn3)CC2)C2CC2)c(-c2cn(C)c(=O)c3[nH]ccc23)c1 (stereo not drawn) [Compound I-231, N-[3-(3-chloro-4-cyano-phenoxy)-2,2,4,4-tetramethyl-cyclobutyl]-2-[4-[4-cyclopropyl-5-[4-ethylsulfonyl-2-(6-methyl-7-oxo-1H-pyrrolo[2,3-c]pyridin-4-yl)phenoxy]pentyl]piperazin-1-yl]pyrimidine-5-carboxamide]
- Kd (BRD4-BD1): < 50 nM
- GI50 (T47D cells; Homo sapiens): < 500 nM
